From patent US20060069132A1, “Azolecarboxamide herbicides” (priority 2004, published 2006)

Columns and labels:
rice = experiment: Test C flooded paddy test; format: in vivo, Oryza sativa; conditions: for Plant response rating, Rice: 500 g ai/ha, visual rating after 12 to 14 days
Procedure, shortened: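 Injury scored visually against controls on a 0 (no effect) to 100 (complete control) scale, 12 to 14 days after treatment in greenhouse. Flooded paddy plants treated at 2-leaf stage; postemergence plants at 1- to 4-leaf stage, 2 to 18 cm tall.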

barnyardgrass = experiment: Test A pre-/postemergence herbicide test; format: in vivo, Echinochloa crus-galli
Procedure, shortened: (§1)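 Visual injury scores on a 0–100 scale (100 = complete control) taken about ten days post-treatment in greenhouse against untreated controls; dash means no result. Treatments: preemergence soil spray and postemergence spray to runoff on one- to two-leaf plants 2 to 10 cm tall, surfactant-containing formulation.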

kochia = experiment: Test C pre-/postemergence herbicide test; format: in vivo, Kochia scoparia
Procedure, shortened: (§2)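 Visual ratings on a 0–100 scale (100 = complete control) made versus untreated controls after 12 to 14 greenhouse days. Test chemicals, formulated in surfactant-containing non-phytotoxic solvent, applied preemergence to planted seeds or postemergence to 1- to 4-leaf plants (2 to 18 cm).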

giant foxtail = experiment: Test A pre-/postemergence herbicide test; format: in vivo, Setaria faberi
Procedure, shortened: as §1

ducksalad = experiment: Test C flooded paddy test; format: in vivo, Heteranthera limosa; conditions: for Plant response rating, Ducksalad: 500 g ai/ha, visual rating after 12 to 14 days
lambsquarters = experiment: Test C pre-/postemergence herbicide test; format: in vivo, Chenopodium album; conditions: for Lambsquarters plant response rating: 500 g ai/ha
Procedure, shortened: as §2

large crabgrass [1] = experiment: Test C pre-/postemergence herbicide test; format: in vivo, Digitaria sanguinalis; conditions: for Crabgrass, Large plant response rating: 500 g ai/ha
Procedure, shortened: as §2

large crabgrass [2] = experiment: Test A pre-/postemergence herbicide test; format: in vivo, Digitaria sanguinalis
Procedure, shortened: as §1

woolly cupgrass = experiment: Test C pre-/postemergence herbicide test; format: in vivo, Eriochloa villosa; conditions: for Cupgrass, Woolly plant response rating: 500 g ai/ha
Procedure, shortened: as §2

corn = experiment: Test C pre-/postemergence herbicide test; format: in vivo, Zea mays; conditions: for Corn plant response rating: 500 g ai/ha
Procedure, shortened: as §2

johnsongrass = experiment: Test C pre-/postemergence herbicide test; format: in vivo, Sorghum halepense; conditions: for Johnsongrass plant response rating: 500 g ai/ha
Procedure, shortened: as §2

velvetleaf = experiment: Test A pre-/postemergence herbicide test; format: in vivo, Abutilon theophrasti
Procedure, shortened: as §1

[3] = 62 g ai/ha, scale 0 to 100 (0 no effect, 100 complete control)
[4] = 125 g ai/ha, scale 0 to 100 (0 no effect, 100 complete control)
[5] = 250 g ai/ha, scale of 0 to 100, 0 is no effect, 100 is complete control
[6] = scale 0 to 100 (0 no effect, 100 complete control)
[7] = Postemergence, 500 g ai/ha, 0 to 100 scale, 0 no effect, 100 complete control
[8] = Postemergence, 2000 g ai/ha, 0 to 100 scale, 0 no effect, 100 complete control
[9] = Preemergence, 500 g ai/ha, visual rating, 0 to 100 scale (0 no effect, 100 complete control)
[10] = Preemergence, 2000 g ai/ha, visual rating, 0 to 100 scale (0 no effect, 100 complete control)
[11] = 125 g ai/ha, scale 0 (no effect) to 100 (complete control), visual, 12 to 14 days, preemergence
[12] = Postemergence, 250 g ai/ha, scale 0 to 100, 0 no effect, 100 complete control
[13] = postemergence, 125 g ai/ha, scale 0 to 100
[14] = postemergence, 62 g ai/ha, scale 0 to 100
[15] = 250 g ai/ha, scale 0 to 100 (0 no effect, 100 complete control), visual, 12 to 14 days, preemergence
[16] = preemergence, 500 g ai/ha, visual injury, 0 to 100 scale (0 no effect, 100 complete control)
[17] = Preemergence, scale 0 to 100, 0 no effect, 100 complete control

CCn1nc(C(C)(C)C)cc1C(=O)Nc1cccc(C#N)c1 [Compound 139]
40: Barnyardgrass plant response rating (barnyardgrass; [9]) | Plant response rating, Foxtail, Giant (giant foxtail; [8]) | Plant response rating (0 = no effect, 100 = complete control), Crabgrass, Large (large crabgrass [1]; 62 g ai/ha, preemergence) | Plant response rating, Velvetleaf (velvetleaf; [8])
30: Plant response rating, Crabgrass, Large (large crabgrass [2]; [8]) | Plant response rating, Johnsongrass (johnsongrass; [11])
35: Rice plant response rating (rice; [4]) | Barnyardgrass plant response rating (barnyardgrass; [7])
20: Foxtail, Giant plant response rating (giant foxtail; [7]) | Plant response rating (0 = no effect, 100 = complete control), Johnsongrass (johnsongrass; 62 g ai/ha, preemergence)
55: Plant response rating, Cupgrass, Woolly (woolly cupgrass; [15])
85: Ducksalad plant response rating (ducksalad; [5])
75: Foxtail, Giant plant response rating (giant foxtail; [10]) | Crabgrass, Large plant response rating (large crabgrass [2]; [10])
90: Plant response rating, Ducksalad (ducksalad; [6])
0: Rice plant response rating (rice; [3]) | Ducksalad plant response rating (ducksalad; [3]) | Plant response rating, Crabgrass, Large (large crabgrass [1]; [12]) | Plant response rating, Crabgrass, Large (large crabgrass [1]; [13]) | Plant response rating, Crabgrass, Large (large crabgrass [1]; [14]) | Crabgrass, Large plant response rating (large crabgrass [2]; [7]) | Plant response rating (0 = no effect, 100 = complete control), Cupgrass, Woolly (woolly cupgrass; 62 g ai/ha, preemergence) | Plant response rating, Cupgrass, Woolly (woolly cupgrass; [13]) | Plant response rating, Cupgrass, Woolly (woolly cupgrass; [14]) | Plant response rating (0 = no effect, 100 = complete control), Corn (corn; 62 g ai/ha, preemergence) | Plant response rating, Corn (corn; [11]) | Plant response rating, Corn (corn; [14]) | Plant response rating, Johnsongrass (johnsongrass; [12]) | Plant response rating, Johnsongrass (johnsongrass; [13]) | Plant response rating, Johnsongrass (johnsongrass; [14])
45: Rice plant response rating (rice; [5]) | Crabgrass, Large plant response rating (large crabgrass [2]; [9])
100: Plant response rating (0 = no effect, 100 = complete control), Kochia (kochia; 62 g ai/ha, preemergence) | Plant response rating, Kochia (kochia; [11]) | Plant response rating (0 = no effect, 100 = complete control), Lambsquarters (lambsquarters; 62 g ai/ha, preemergence) | Plant response rating, Lambsquarters (lambsquarters; [11]) | Plant response rating, Crabgrass, Large (large crabgrass [1]; [11]) | Plant response rating, Crabgrass, Large (large crabgrass [1]; [15])
5: Plant response rating, Cupgrass, Woolly (woolly cupgrass; [12])
10: Plant response rating, Cupgrass, Woolly (woolly cupgrass; [11]) | Plant response rating, Corn (corn; [12]) | Plant response rating, Corn (corn; [13])
60: Plant response rating, Rice (rice; [6]) | Plant response rating, Barnyardgrass (barnyardgrass; [8]) | Barnyardgrass plant response rating (barnyardgrass; [10]) | Foxtail, Giant plant response rating (giant foxtail; [9])
70: Ducksalad plant response rating (ducksalad; [4])
80: Velvetleaf plant response rating (velvetleaf; [10])
50: Plant response rating, Kochia (kochia; [12]) | Plant response rating, Kochia (kochia; [13]) | Plant response rating, Kochia (kochia; [14]) | Velvetleaf plant response rating (velvetleaf; [16])
15: Plant response rating, Corn (corn; [15])
25: Velvetleaf plant response rating (velvetleaf; [7])

CCn1nc(C(C)(C)C)cc1C(=O)Nc1cccc(C(=O)NC2CC2)n1 [Compound 146]
10: Plant response rating, Cupgrass, Woolly (woolly cupgrass; [13]) | Plant response rating, Cupgrass, Woolly (woolly cupgrass; [14]) | Plant response rating, Corn (corn; [15]) | Plant response rating, Corn (corn; [12])
15: Foxtail, Giant plant response rating (giant foxtail; [7]) | Crabgrass, Large plant response rating (large crabgrass [2]; [7])
50: Barnyardgrass plant response rating (barnyardgrass; [7]) | Plant response rating (0 = no effect, 100 = complete control), Kochia (kochia; 62 g ai/ha, preemergence) | Plant response rating, Kochia (kochia; [11]) | Plant response rating, Crabgrass, Large (large crabgrass [1]; [12])
80: Barnyardgrass plant response rating (barnyardgrass; [10]) | Plant response rating, Lambsquarters (lambsquarters; [13]) | Crabgrass, Large plant response rating (large crabgrass [2]; [10])
55: Plant response rating, Crabgrass, Large (large crabgrass [2]; [8])
35: Plant response rating, Velvetleaf (velvetleaf; [8])
100: Kochia plant response rating (kochia; Preemergence, 500 g ai/ha, scale 0 to 100, 0 no effect, 100 complete control) | Lambsquarters plant response rating (lambsquarters; Postemergence, scale 0 to 100) | Plant response rating, Lambsquarters (lambsquarters; [12]) | Lambsquarters plant response rating (lambsquarters; [17])
20: Plant response rating, Rice (rice; [6]) | Plant response rating, Kochia (kochia; [12]) | Ducksalad plant response rating (ducksalad; [5]) | Plant response rating, Ducksalad (ducksalad; [6]) | Plant response rating (0 = no effect, 100 = complete control), Crabgrass, Large (large crabgrass [1]; 62 g ai/ha, preemergence) | Velvetleaf plant response rating (velvetleaf; [7]) | Velvetleaf plant response rating (velvetleaf; [16])
0: Rice plant response rating (rice; [3]) | Rice plant response rating (rice; [4]) | Rice plant response rating (rice; [5]) | Ducksalad plant response rating (ducksalad; [3]) | Ducksalad plant response rating (ducksalad; [4]) | Plant response rating, Crabgrass, Large (large crabgrass [1]; [13]) | Plant response rating, Crabgrass, Large (large crabgrass [1]; [14]) | Plant response rating (0 = no effect, 100 = complete control), Cupgrass, Woolly (woolly cupgrass; 62 g ai/ha, preemergence) | Plant response rating, Cupgrass, Woolly (woolly cupgrass; [11]) | Plant response rating, Cupgrass, Woolly (woolly cupgrass; [15]) | Cupgrass, Woolly plant response rating (woolly cupgrass; [17]) | Plant response rating (0 = no effect, 100 = complete control), Corn (corn; 62 g ai/ha, preemergence) | Plant response rating, Corn (corn; [11]) | Johnsongrass plant response rating (johnsongrass; Postemergence, scale 0 to 100) | Plant response rating, Johnsongrass (johnsongrass; [12]) | Plant response rating, Johnsongrass (johnsongrass; [13]) | Plant response rating, Johnsongrass (johnsongrass; [14])
90: Plant response rating, Lambsquarters (lambsquarters; [11])
85: Plant response rating (0 = no effect, 100 = complete control), Lambsquarters (lambsquarters; 62 g ai/ha, preemergence) | Crabgrass, Large plant response rating (large crabgrass [1]; Postemergence, scale 0 to 100)
40: Plant response rating, Foxtail, Giant (giant foxtail; [8]) | Plant response rating, Lambsquarters (lambsquarters; [14])
25: Velvetleaf plant response rating (velvetleaf; [10])
70: Barnyardgrass plant response rating (barnyardgrass; [9]) | Crabgrass, Large plant response rating (large crabgrass [1]; [17]) | Crabgrass, Large plant response rating (large crabgrass [2]; [9]) | Johnsongrass plant response rating (johnsongrass; [17])
30: Cupgrass, Woolly plant response rating (woolly cupgrass; Postemergence, scale 0 to 100) | Plant response rating, Cupgrass, Woolly (woolly cupgrass; [12]) | Corn plant response rating (corn; Postemergence, scale 0 to 100) | Corn plant response rating (corn; [17]) | Plant response rating, Johnsongrass (johnsongrass; [11])
75: Plant response rating, Barnyardgrass (barnyardgrass; [8])
45: Foxtail, Giant plant response rating (giant foxtail; [9]) | Foxtail, Giant plant response rating (giant foxtail; [10])
5: Plant response rating, Kochia (kochia; [14]) | Plant response rating, Corn (corn; [13]) | Plant response rating, Corn (corn; [14])
